Source: publication PMC11969009 (Nature Communications, 2025)

System: SARS-CoV-2 P2 strain
Parameters: species or system C57BL/6 (WT) mice
Conditions: mouse, in vivo

CC(C)c1nc(CN(C)C(=O)N[C@H](C(=O)N[C@@H](Cc2ccccc2)C[C@H](O)[C@H](Cc2ccccc2)NC(=O)OCc2cncs2)C(C)C)cs1 [ritonavir, reference compound]
antiviral activity (lung viral burden), mild model: no antiviral activity
